Publication PMC3627040, “Methadone but not Morphine Inhibits Lubiprostone-Stimulated Cl^− Currents in T84 Intestinal Cells and Recombinant Human ClC-2, but not CFTR Cl^− Currents” (Cell Biochemistry and Biophysics, 2012)

Target: T1, human ClC-2 (hClC-2) Cl^− channel (Homo sapiens, UniProt P51788)
T1 construct: gene CLCN2; recombinant hClC-2 stably expressed in HEK293EBNA cells
T1 sequence (P51788 2-898): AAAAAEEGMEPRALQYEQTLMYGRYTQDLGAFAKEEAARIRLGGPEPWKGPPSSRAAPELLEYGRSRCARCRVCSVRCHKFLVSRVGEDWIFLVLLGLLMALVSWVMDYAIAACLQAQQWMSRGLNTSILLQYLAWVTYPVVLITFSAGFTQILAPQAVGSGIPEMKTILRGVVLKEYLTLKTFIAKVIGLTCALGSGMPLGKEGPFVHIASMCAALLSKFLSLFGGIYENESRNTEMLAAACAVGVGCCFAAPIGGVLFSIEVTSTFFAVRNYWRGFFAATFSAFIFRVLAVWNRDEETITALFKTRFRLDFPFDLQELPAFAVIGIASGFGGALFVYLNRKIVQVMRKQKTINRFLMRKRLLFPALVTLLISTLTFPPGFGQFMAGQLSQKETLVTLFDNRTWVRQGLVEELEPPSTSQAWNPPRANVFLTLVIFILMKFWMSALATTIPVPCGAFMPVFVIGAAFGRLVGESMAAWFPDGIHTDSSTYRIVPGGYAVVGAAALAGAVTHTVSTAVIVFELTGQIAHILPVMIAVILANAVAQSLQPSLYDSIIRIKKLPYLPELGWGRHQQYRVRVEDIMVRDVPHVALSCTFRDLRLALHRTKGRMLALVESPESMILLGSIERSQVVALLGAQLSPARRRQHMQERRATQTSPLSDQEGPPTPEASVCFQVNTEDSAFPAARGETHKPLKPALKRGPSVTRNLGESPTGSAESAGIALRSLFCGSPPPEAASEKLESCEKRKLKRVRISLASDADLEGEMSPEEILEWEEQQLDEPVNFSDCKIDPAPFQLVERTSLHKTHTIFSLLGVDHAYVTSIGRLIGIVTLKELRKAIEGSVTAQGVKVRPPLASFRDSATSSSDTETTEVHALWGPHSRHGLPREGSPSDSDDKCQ
Test: whole cell patch clamp, activation of Cl- currents at -140 mV
Type: cell-based

## CCCCC(F)(F)[C@@]1(O)CC[C@H]2[C@@H](CC(=O)[C@@H]2CCCCCCC(=O)O)O1 [Lubiprostone]
  EC50: 0.0282 µM
